In patent publication US20080112927A1, “Cells and methods utilizing same for modifying the electrophysiological function of excitable tissues” (GeneGrafts Ltd., priority 2006, published 2008):

Experiments:
[1] = tested on: Kv 1.3 channel of grafted fibroblasts in left ventricular myocardium; experiment: ERP after Margatoxin in rats grafted with Kv1.3 fibroblasts; type: in vivo, rat; conditions: 9 μg/kg intraperitoneal bolus; for local ventricular ERP at the site of cell transplantation after MTx, group mean: 154±13 ms before blocker (FIG. 19b)
Method: (§1) Rat model—Male Sprague-Dawley rats weighing 200-250 gr were anesthetized using A Xylasine (0.5 mg/kg) and Ketamine (0.5 mg/kg) preparation [see Example 7]. The animals were then intubated and ventilated using a Harvard small-animal mechanical respirator. The chest wall was opened using a left thoracotomy and the heart was exposed. After removal of the pericardium, a total of 6×10^6 cells (either fibroblasts without transfections in the control group or fibroblast overexpressing the KV1.3 channel in the study group) were transplanted into the anterior aspect of the left ventricular wall using a 28 g needle. In order to prevent graft rejection, all animals were treated with a daily dose of cyclosporin (10 mg/kg) and methyprednisolone (2 mg/kg). The animals underwent a detailed electrophysiological study (see below) immediately before cell grafting and 7 days post-transplantation.
(§2) In vivo electrophysiological studies—The electrophysiological study in rats included a standard ventricular pacing protocol to determine the local myocardial effective refractory period (ERP). The ERP was evaluated by applying a train of 20 stimuli at a fixed cycle-length of 200 ms (S1), followed by a single premature stimulus (S2). The S1-S2 coupling interval was gradually shortened. The ERP was determined as the shortest S1-S2 coupling interval still capable of eliciting a ventricular response. Stimuli were generated using a computer controlled STG 1004 stimulus generator with the matching MC-Stim software (both from Multi Channel Systems, Reutlingen, Germany).
The ERP was measured at the site of cell transplantation and at remote sites, both prior to cell transplantation and seven days following cell grafting. In order to dissect the role of the overexpressed channel in altering the local myocardial electrophysiological properties, the ERP was measured also at each site following application of 9 μg/kg of Margatoxin (Alomone Labs, Jerusalem, Israel), a specific Kv 1.3 channel blocker as an intraperitoneal bolus.

[2] = tested on: left ventricular myocardium grafted with naive fibroblasts; experiment: ERP after Margatoxin in rats grafted with naive fibroblasts (control group); type: in vivo, rat; conditions: animals grafted with naive fibroblasts, 88±4 ms before blocker
Method: as §1, with “The animals underwent a detailed electrophysiological study (see below) immediately before cell grafting and 7 days post-transplantation.” left out
as §2, with “The S1-S2 coupling interval was gradually shortened.” left out, “Stimuli were generated using a computer controlled STG 1004 stimulus generator with the matching MC-Stim software (both from Multi Channel Systems, Reutlingen, Germany).” left out
The ERP was measured at the site of cell transplantation and at remote sites, both prior to cell transplantation and seven days following cell grafting. […]

[3] = tested on: Kv1.3 channel of grafted fibroblasts in right ventricle; experiment: ERP after local Margatoxin in pigs grafted with Kv1.3 fibroblasts; type: in vivo, pig
Method: Swine model—Three domestic pigs (20-30) kg were studied. Anesthesia was induced with 5-10 ml of intravenous sodium pentothal 2.5% solution and maintained with inhaled isoflurane (2%) in oxygen. Following a right thoracotomy, each heart was exposed and a total of 6×10^6 cells were transplanted at a total of 7 different locations in the anterior free wall of the right ventricle. Cells were delivered using a 25 g needle using an injection volume of 250 μl. The sites of cell transplantation were marked with a suture. To prevent graft rejection, the animals were treated with an immunosuppressive regimen (cyclosporine, 10 mg/kg/d and methylprednisolone, 3 mg/kg/d). 7 days following cell transplantation, a second thoracotomy and a detailed epicardial electrophysiological study were performed.
The ERP in the pigs was measured in a similar manner to that in the rats but using slower basic stimulation intervals (CLs of 350, 400 and 500 ms). The ERP was measured at the site of cell transplantation as well as in remote sites and also following local intramyocardial injection of Margatoxin at the examined sites.

[4] = tested on: cultured neuronal network (cortical neurons); experiment: Spiking activity of cultured cortical neuronal network on multi electrode array (MEA); type: cell-based, rat
Method: Cortical neurons were obtained from newborn rats within 24 hours from birth, following standard harvesting procedures (Culturing nerve cells, 2nd edition, Gary Ranker and Kimberly Goslin, 1998). The cortex tissue was digested enzymatically and mechanically dissociated and the neurons were plated directly onto substrate-integrated multi-electrode array (MEA) dishes prepared as described below. The cultures were bathed in MEM which was supplemented with heat-inactivated horse serum (5%), Glutamine (0.5 mM), Glucose (20 mM), and Gentamycin (10 μg/ml), and maintained in a tissue culture incubator at 37° C., 5% CO2 and 95% during the recording phases. Half of the medium was exchanged twice a week and the experiments were performed during the third week following plating, thus allowing complete maturation of the neurons (FIGS. 1a-b).
Arrays of 60 Ti/Au/TiN electrodes, 30 μm in diameter, spaced 200 μm from each other (MultiChannelSystems (MCS), Reutlingen, Germany) were utilized in the present study. The insulation layer (silicon nitride), was pretreated with poly-L-lysine forming a good surface for network development. A commercial 60-channel amplifier (B-MEA-1060, MCS, Reutlingen, Germany) with frequency limit range of 10-3000 Hz and a gain of ×1024 was utilized for signal amplification. The amplifier was connected to MCPPlus filter amplifiers (Alpha Omega, Nazareth, Israel) for further amplification (×10 to ×20). Stimulation through the MEA was performed using a dedicated 8-channel stimulus generator (MCS, Reutlingen, Germany).
In addition, the micro-incubation environment was arranged to support long-term recordings from MEA dishes. This was achieved by streaming a filtered, heated and humidified air/CO2 (95/5%) gas mixture, and by electrically heating the MEA platform to 37° C. Data is digitized using two 5200a/526 A/D boards (Microstar Laboratories, Wash., USA).
Following electrical functionality determination, the neuronal network cultures were incubated with various electrical conduction blockers.

[5] = biological target: mutant voltage gated potassium channel Kv1.3 (GenBank Accession number H18261) expressed in NIH 3T3 fibroblasts; experiment: cell-based or functional assay
[6] = tested on: cardiomyocytes co-cultured with fibroblasts (NIH 3T3) transfected with voltage gated potassium channel Kv1.3; experiment: CTX on MEA-recorded activity of cardiomyocytes co-cultured with Kv1.3 transfected fibroblasts (Example 5); type: cell-based, rat; conditions: for increase of spontaneous activity rate: co-cultures with transfected fibroblasts
Method: (§3) Monolayer cultures of neonatal rat ventricular cardiomyocytes (NRVM) were prepared as previously described (Rubin et al, 1995), with some modifications. The cultures were maintained in a humidified incubator under a controlled environment of 5% CO2+95% air at 37° C.; fresh medium was replaced on alternating days.
(§4) Fibroblasts from the NIH 3T3 cell line were transfected with an expression cassette which included a mutant voltage gated potassium channel (Kv1.3) coding sequence (GeneBank Accession number H18261) placed under the transcription control of a constitutive promoter using standard procedures. Fibroblast cultures not transfected with the channel coding sequence were produced from the NIH 3T3 cell-line.
(§5) Once well synchronous spontaneous activity was established in the cardiomyocyte cultures, fibroblasts transfected with the Kv1.3 channel coding sequence or non-transfected fibroblasts were added to the cultures. Two different methods where used to seed the fibroblasts. In the first method, the fibroblast were suspended in trypsin for 5 minutes following which they were seeded in a diffuse pattern in the cardiomyocytic cultures (FIG. 4a). In the second method, the fibroblasts where pipetted up and down through a 5 ml pipette for 2 minutes and seeded in the cardiomyocytic cultures thus were forming clusters of fibroblasts (FIG. 4b).
Extracellular recordings from cultured cardiomyocytes were performed on a PC-based Microelectrode Data Acquisition System (Multi Channel Systems, Reutlingen, Germany), consisting of Multi-Electrode Array (MEA), pre- and filter-amplifiers, data acquisition board, and software. The MEA consists of a 50×50 mm glass substrate, in the center of which is an embedded 0.7×0.7 or 1.4×1.4 mm matrix of 60 Titanium-nitride, gold contacts 10 or 30 μm diameter electrodes insulated with silicone nitride, with inter-electrode distance of 100 or 200 μm (there are no electrodes in the corners of the matrix). Data were recorded at 10-25 KHz with 12-bit precision. During the recording sessions, the MEA (removed from the regular incubator) was constantly perfused with a gas mixture consisting of 5% CO2+95% air. Temperature was kept at 37±0.10° C.
Recorded data was filtered using cutoff frequency of 2 KHz (Fast et al, 1993). The filtered signal was then differentiated digitally to determine the Local Activation Time (LAT) at each electrode, corresponding to dF/dtmin (where F is the filtered signal) (Dolber and Spach, 1986). Color-coded activation maps were constructed by interpolating the LAT values for the sites between the electrodes, and by extrapolating the LAT values for the 4 corners of the MEA matrix. Activation maps were plotted by means of Matlab standard 2-d plotting function (pcolor) (Matlab 5.3 Mathworks Incorporated©). Conduction velocity was calculated by standard methods (Bayly et al, 1988).
(§6) Conduction block quantification is central to evaluating conduction block development in the cell cultures, and to evaluating reversibility of the conduction block following CTX application. A conduction block was determined using the following algorithm: […]
(§7) Electrical activity of the cultures was recorded on day one immediately prior to seeding of the fibroblasts and then daily until the cultures died or no spontaneous activity was detected. […]

[7] = tested on: cardiomyocyte cultures or cardiomyocytes co-cultured with untransfected fibroblasts; experiment: CTX on MEA-recorded activity of control cultures (Example 5); type: cell-based, rat; conditions: for increase of spontaneous activity rate: control cultures
Method: as §3, §4
as §5, with “In the second method, the fibroblasts where pipetted up and down through a 5 ml pipette for 2 minutes and seeded in the cardiomyocytic cultures thus were forming clusters of fibroblasts (FIG. 4b).” left out
Extracellular recordings from cultured cardiomyocytes were performed on a PC-based Microelectrode Data Acquisition System (Multi Channel Systems, Reutlingen, Germany), consisting of Multi-Electrode Array (MEA), pre- and filter-amplifiers, data acquisition board, and software. […] Data were recorded at 10-25 KHz with 12-bit precision. […]
Recorded data was filtered using cutoff frequency of 2 KHz (Fast et al, 1993). […] Conduction velocity was calculated by standard methods (Bayly et al, 1988).
as §6, §7

[8] = tested on: cardiomyocyte cultures seeded with Kv1.3 expressing fibroblasts; experiment: CTx on spontaneous beating rate of study co-cultures (Kv1.3 expressing fibroblasts) (Example 8); type: cell-based, rat; conditions: CTx 100 nM, study group (FIG. 18b)
Method: (§8) Expression system and electrophysiological recordings—NIH 3T3 fibroblast cells (ATCC: CRL 1658) were stably transfected to express the voltage gated potassium channel Kv1.3 as previously described [Feld Y. et al. Circulation. (2002); 105:522-529]. Briefly, stable transfection of pRC/CMV/Kv1.3 in fibroblasts was achieved using electroporation with a single pulse of 200 V, 960° F. followed by antibiotic selection of NeoR clones with 400 μg/mL of G-418 (GIBCO, Langley, Okla., USA). Colonies were picked and tested for channel expression using whole-cell patch clamp recordings. The recordings were conducted at room temperature using Axopatch 200 (Axon Instruments). Kv1.3 expressing fibroblast were generated as previously described [Feld Y. et al. Circulation. (2002); 105:522-9]. […]
(§9) Once a well synchronous spontaneous activity was established in the cardiomyocyte cultures, fibroblasts (naïve, or Kv1.3 expressing fibroblasts) were seeded in a diffuse manner into the cardiomyocytic cultures. Two groups were studied: The cultures were studied daily, and the electrophysiological properties, essentially the spontaneous beating rate of the culture, was assessed at baseline and following application of the specific Kv1.3 blocker, Charybdotoxin (CTx), at increasing dosages (1, 10, 100 nM). […]

[9] = tested on: cardiomyocyte cultures seeded with naive fibroblasts; experiment: CTx on spontaneous beating rate of control co-cultures (naive fibroblasts) (Example 8); type: cell-based, rat; conditions: CTx application, control group
Method: as §8, §9

For “Margatoxin (TIINVKCTSPKQCLPPCKAQFGQSAGAKCMNGKCKCYPH)”, the “local ventricular ERP at the site of cell transplantation after MTx, group mean” value [1] was 117 ± 7.70 ms, the “local ventricular ERP at the site of cell transplantation after MTx, group mean” value ([1]; listed as MTx) was 117 ± 8 ms and the “ventricular ERP at the site of cell grafting after Margatoxin, one of the animals” value ([1]; 170 ms before blocker (FIG. 19a)) was 100 ms. The “local ERP after administration of Mtx, control group” value [2] was “did not change significantly”, the “local ERP after local application of MTx” value ([3]; pig, basic CL 400 ms, 310 ms before blocker (FIG. 20a)) was 220 ms and the “ventricular ERP after local application of MTx” value ([3]; pigs, all three CLs (FIG. 20b)) was “not different from the control sites”.
For `N[C@H](CCCP(=O)(O)O)C(=O)O` [APV, D-2-amino-5-phosphonovalerate], the spiking activity ([4]; 20 μM added to the cultured neuronal network) was “completely abolished”.
“Margatoxin (from UniProt P40755 1-39) (peptide)” gave a local ventricular effective refractory period (ERP) at the graft site in one rat after Margatoxin (170 ms before) [5] of 100 ms.
In the case of `CN1CCc2cc3c(cc2[C@H]1[C@@H]1OC(=O)c2c1ccc1c2OCO1)OCO3` [bicuculin], the spiking activity ([4]; 5 μM added to the cultured neuronal network) is reported as “completely abolished”.
In the case of “Charybdotoxin (QFTNVSCTTSKECWSVCQRLHNTSRGKCMNKKCRCYS) [CTX]”, the “increase of spontaneous activity rate” value ([6]; CTX 10 nM) is reported as 20%, the “increase of spontaneous activity rate” value ([6]; CTX 100 nM) is reported as 55% and the conduction block factor ([6]; application of Charybdotoxin, co-cultures with Kv1.3 transfected fibroblasts, n=10 (FIG. 11)) is reported as “substantially decreased”. For the same compound, the conduction blocks ([6]; following treatment with CTX (10 nM, FIG. 7d; FIG. 11)) was “reversed”, the “uncoupling effect after fibroblast seeding” value ([6]; following treatment with CTX (100 nM, FIGS. 6f-g)) was “reversed” and the “increase of spontaneous activity rate” value ([7]; CTX 10 nM) was “did not increase”. For the same compound, the “increase of spontaneous activity rate” value ([7]; CTX 100 nM) was “up to 15%”, the conduction block factor ([7]; application of Charybdotoxin, co-cultures with non-transfected fibroblasts, n=9 (FIG. 11)) was “minimal response” and the “reversibility of the negative chronotropic effect induced by the transfected fibroblast” value [8] was “full reversibility”. The beating frequency [9] was “did not significantly alter”.
In the case of `O=[N+]([O-])c1cc2nc(O)c(O)nc2cc1[N+](=O)[O-]` [DNQX], the spiking activity ([4]; 10 μM added to the cultured neuronal network) is reported as “completely abolished”.
